Laboratory results reported in PubChem BioAssay (NCI).
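Where inhibition never reached the appropriate level, the endpoint shown equals the highest concentration tested. Otherwise, values were interpolated linearly from a five-concentration, 48-hour dose response in 96-well plates. TGI: concentration producing complete growth inhibition.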

Key:
Test in all cases: growth of human tumour cells (NCI), 48 h
[1] = test system: SK-MEL-2 melanoma
[2] = test system: UACC-62 melanoma
[3] = test system: SW-620 colon
[4] = test system: OVCAR-8 ovarian
[5] = test system: SN12C renal
[6] = test system: UACC-257 melanoma
[7] = test system: RXF 393 renal
[8] = test system: SF-268 CNS
[9] = test system: SK-MEL-5 melanoma
[10] = test system: XF 498 CNS
[11] = test system: NCI-H226 lung
[12] = test system: M14 melanoma
[13] = test system: HCC-2998 colon
[14] = test system: ACHN renal
[15] = test system: DMS 273 small cell lung
[16] = test system: SK-OV-3 ovarian
[17] = test system: SR leukemia
[18] = test system: HT29 colon
[19] = test system: A498 renal
[20] = test system: MOLT-4 leukemia
[21] = test system: NCI-H460 lung
[22] = test system: K-562 leukemia
[23] = test system: SNB-19 CNS
[24] = test system: A549 NSCLC
[25] = test system: CCRF-CEM leukemia
[26] = test system: TK-10 renal
[27] = test system: NCI-H23 lung
[28] = test system: UO-31 renal
[29] = test system: HL-60(TB) leukemia
[30] = test system: OVCAR-5 ovarian
[31] = test system: OVCAR-4 ovarian
[32] = test system: HOP-62 NSCLC
[33] = test system: EKVX NSCLC
[34] = test system: HOP-18 NSCLC
[35] = test system: SNB-75 CNS
[36] = test system: HCT-116 colon
[37] = test system: SF-295 CNS
[38] = test system: CAKI-1 renal
[39] = test system: SNB-78 CNS
[40] = test system: 786-0 renal
[41] = test system: LXFL 529 NSCLC
[42] = test system: IGROV1 ovarian
[43] = test system: LOX IMVI melanoma
[44] = test system: MALME-3M melanoma
[45] = test system: OVCAR-3 ovarian
[46] = test system: M19-MEL melanoma
[47] = test system: KM20L2 colon
[48] = test system: SK-MEL-28 melanoma
[49] = test system: U251 CNS
[50] = test system: SF-539 CNS
[51] = test system: NCI-H522 lung
[52] = test system: DMS 114 small cell lung
[53] = test system: DLD-1 colon
[54] = test system: KM12 colon
[55] = test system: RPMI-8226 leukemia
[56] = test system: COLO 205 colon
[57] = test system: HCT-15 colon
[58] = test system: HOP-92 NSCLC

SMILES: COc1cc(/C=C/C(=O)c2cccc3ccccc23)cc(OC)c1OC
- TGI [1]: 12.4 µM
- TGI [2]: 21.3 µM
- TGI [3]: 7.32 µM
- TGI [4]: 4.58 µM
- TGI [5]: 12.5 µM
- TGI [6]: 19.7 µM
- TGI [7]: 7.93 µM
- TGI [8]: 18.2 µM
- TGI [9]: 23.8 µM
- TGI [10]: 20.5 µM
- TGI [11]: 30.3 µM
- TGI [12]: 19.1 µM
- TGI [13]: 28.2 µM
- TGI [14]: 24.4 µM
- TGI [15]: 23.9 µM
- TGI [16]: 28.5 µM
- TGI [17]: 73.2 µM
- TGI [18]: 14.4 µM
- TGI [19]: 10.6 µM
- TGI [20]: 34.4 µM
- TGI [21]: 14.2 µM
- TGI [22]: 14.1 µM
- TGI [23]: 27.8 µM
- TGI [24]: 37 µM
- TGI [25]: 7.27 µM
- TGI [26]: 27.3 µM
- TGI [27]: 18.4 µM
- TGI [28]: 30.5 µM
- TGI [29]: 4.31 µM
- TGI [30]: 27.5 µM
- TGI [31]: 19.1 µM
- TGI [32]: 18.8 µM
- TGI [33]: 28.7 µM
- TGI [34]: 24.8 µM
- TGI [35]: 23.3 µM
- TGI [36]: 13.8 µM
- TGI [37]: 22.2 µM
- TGI [38]: 23.2 µM
- TGI [39]: 12.8 µM
- TGI [40]: 14.8 µM
- TGI [41]: 10.3 µM
- TGI [42]: 43.4 µM
- TGI [43]: 12.1 µM
- TGI [44]: 24.9 µM
- TGI [45]: 25.7 µM
- TGI [46]: 38.2 µM
- TGI [47]: 13.6 µM
- TGI [48]: 19.4 µM
- TGI [49]: 18.8 µM

SMILES: CC(C)N(C(=O)C12C3C4C1C1C2C3C41C(=O)C(C)(C)C)C(C)C (configuration not stated)
- TGI [1]: > 100 µM
- TGI [2]: > 100 µM
- TGI [3]: > 100 µM
- TGI [4]: > 100 µM
- TGI [5]: > 100 µM
- TGI [6]: > 100 µM
- TGI [8]: > 100 µM
- TGI [50]: > 100 µM
- TGI [9]: > 100 µM
- TGI [51]: 56.8 µM
- TGI [10]: > 100 µM
- TGI [12]: > 100 µM
- TGI [13]: > 100 µM
- TGI [14]: > 100 µM
- TGI [15]: > 100 µM
- TGI [16]: > 100 µM
- TGI [18]: > 100 µM
- TGI [19]: > 100 µM
- TGI [20]: > 100 µM
- TGI [22]: > 100 µM
- TGI [23]: > 100 µM
- TGI [24]: > 100 µM
- TGI [52]: > 100 µM
- TGI [25]: > 100 µM
- TGI [26]: > 100 µM
- TGI [27]: > 100 µM
- TGI [28]: > 100 µM
- TGI [53]: > 100 µM
- TGI [29]: 63.7 µM
- TGI [30]: > 100 µM
- TGI [54]: > 100 µM
- TGI [31]: > 100 µM
- TGI [32]: > 100 µM
- TGI [33]: > 100 µM
- TGI [55]: > 100 µM
- TGI [35]: > 100 µM
- TGI [36]: > 100 µM
- TGI [37]: > 100 µM
- TGI [38]: > 100 µM
- TGI [39]: > 100 µM
- TGI [40]: > 100 µM
- TGI [41]: > 100 µM
- TGI [42]: > 100 µM
- TGI [43]: > 100 µM
- TGI [56]: > 100 µM
- TGI [44]: > 100 µM
- TGI [45]: > 100 µM
- TGI [46]: > 100 µM
- TGI [47]: > 100 µM
- TGI [48]: > 100 µM
- TGI [49]: > 100 µM

SMILES: CC1CC(C[N+](=O)[O-])CC2(C1)OCCO2 (configuration not stated)
- TGI [1]: > 100 µM
- TGI [2]: > 100 µM
- TGI [3]: > 100 µM
- TGI [4]: > 100 µM
- TGI [5]: > 100 µM
- TGI [6]: > 100 µM
- TGI [7]: > 100 µM
- TGI [8]: > 100 µM
- TGI [50]: > 100 µM
- TGI [9]: > 100 µM
- TGI [51]: > 100 µM
- TGI [11]: > 100 µM
- TGI [12]: > 100 µM
- TGI [13]: > 100 µM
- TGI [14]: > 100 µM
- TGI [15]: > 100 µM
- TGI [16]: > 100 µM
- TGI [57]: > 100 µM
- TGI [17]: > 100 µM
- TGI [19]: > 100 µM
- TGI [20]: > 100 µM
- TGI [21]: > 100 µM
- TGI [22]: > 100 µM
- TGI [23]: > 100 µM
- TGI [24]: > 100 µM
- TGI [52]: > 100 µM
- TGI [25]: > 100 µM
- TGI [26]: > 100 µM
- TGI [28]: > 100 µM
- TGI [53]: > 100 µM
- TGI [29]: > 100 µM
- TGI [54]: > 100 µM
- TGI [31]: > 100 µM
- TGI [32]: > 100 µM
- TGI [55]: > 100 µM
- TGI [34]: > 100 µM
- TGI [35]: > 100 µM
- TGI [36]: > 100 µM
- TGI [38]: > 100 µM
- TGI [39]: > 100 µM
- TGI [40]: > 100 µM
- TGI [41]: > 100 µM
- TGI [42]: > 100 µM
- TGI [56]: > 100 µM
- TGI [44]: > 100 µM
- TGI [45]: > 100 µM
- TGI [46]: > 100 µM
- TGI [47]: > 100 µM
- TGI [48]: > 100 µM
- TGI [49]: > 100 µM

SMILES: CC(C)OP(=O)(OC(C)C)C(=NCCO)NNc1ccc([N+](=O)[O-])cc1
- TGI [1]: > 100 µM
- TGI [2]: > 100 µM
- TGI [3]: > 100 µM
- TGI [4]: > 100 µM
- TGI [5]: > 100 µM
- TGI [6]: > 100 µM
- TGI [8]: > 100 µM
- TGI [50]: > 100 µM
- TGI [9]: > 100 µM
- TGI [51]: > 100 µM
- TGI [10]: > 100 µM
- TGI [11]: > 100 µM
- TGI [12]: > 100 µM
- TGI [13]: > 100 µM
- TGI [14]: > 100 µM
- TGI [15]: > 100 µM
- TGI [57]: > 100 µM
- TGI [17]: > 100 µM
- TGI [19]: > 100 µM
- TGI [20]: > 100 µM
- TGI [21]: > 100 µM
- TGI [22]: > 100 µM
- TGI [58]: > 100 µM
- TGI [23]: > 100 µM
- TGI [24]: > 100 µM
- TGI [52]: > 100 µM
- TGI [25]: > 100 µM
- TGI [26]: > 100 µM
- TGI [27]: > 100 µM
- TGI [28]: > 100 µM
- TGI [53]: > 100 µM
- TGI [29]: > 100 µM
- TGI [30]: > 100 µM
- TGI [54]: > 100 µM
- TGI [31]: > 100 µM
- TGI [32]: > 100 µM
- TGI [33]: > 100 µM
- TGI [55]: > 100 µM
- TGI [35]: > 100 µM
- TGI [36]: > 100 µM
- TGI [38]: > 100 µM
- TGI [39]: > 100 µM
- TGI [40]: > 100 µM
- TGI [41]: > 100 µM
- TGI [43]: > 100 µM
- TGI [56]: > 100 µM
- TGI [44]: > 100 µM
- TGI [45]: > 100 µM
- TGI [46]: > 100 µM
- TGI [47]: > 100 µM
- TGI [48]: > 100 µM
- TGI [49]: > 100 µM
